This is an account of results in patent publication EP1147080B1 (Wyeth Holdings Corporation, priority 1999, dated 2000).

Like-named read-outs stand apart in the source and are kept apart here.

In assay [1] the test system is THP-1 cells. Nature of the assay: Human monocytic THP-1 cell differentiation assay for soluble proteins (THP soluble protein assay), LPS-stimulated, TNF-α ELISA. Type of assay: cell-based. The note with it: Homo sapiens, THP-1; at 3 uM; percent change from vehicle positive control; read-out: TNFalpha at 3 uM) THP (percent change). An excerpt:
Mitogenic stimulation of THP-1 cells cause differentiation into macrophage like cells with concomitant secretion of tumor necrosis factor (TNF-a) and TNF receptor (TNF-R p75/80 and TNF-R p55/60) and Interleukin-8 (IL-8), among other proteins. In addition, non-stimulated THP-1 cells shed both the p75/80 and the p55/60 receptors over time. The release of membrane bound TNF-a and possibly TNF-R p75/80 and TNF-R p55/60, but not IL-8, is mediated by an enzyme called TNF-α converting enzyme or TACE.
THP-1 cells (from ATCC) are a human monocytic cell line which were obtained from the peripheral blood of a person with acute monocytic leukemia. They can be grown in culture and differentiated into macrophage like cells by stimulation with mitogens.
Each vial of cells are cultured for about two weeks prior to being used for an assay and then are used for only 4 to 6 weeks to screen compounds.
Cell exposure to DMSO was limited to 0.1 % final concentration. […] Compounds can be evaluated for their effect on basal (non-stimulated) shedding of the receptors by replacing the LPS with […] of THP-1 media. Plates are placed into an incubator set at 5% CO2 and at 37°C. After 4 hours of incubation, […] of tissue culture supernatant (TCS) is removed for use in an TNF-α ELISA. Following 24 hours of incubation, […] of TCS is removed and used for analysis in TNF-R p75/80, TNF-R p55/60 and IL-8 ELISAs.
In addition, at the 24 hours timepoint, and the cells for each treatment group are collected by resuspension in 500 µl/well of THP-1 media and transferred into a FACS tube. […] The samples are run on a Becton Dickinson FaxCaliber FLOW cytometry machine and the amount of dye taken up by each cell is measured in the high red wavelength (FL3). Only cells with compromised membranes (dead or dying) can take up PI. The percent of live cells is calculated by the number of cells not stained with PI, divided by the total number of cells in the sample. The viability values calculated for the drug treated groups were compared to the viability value calculated for the vehicle treated mitogen stimulated group ("vehicle positive control") to determine the "percent change from control". This "percent change from control" value is an indicator of drug toxicity.
The quantity of soluble TNF-α, TNF-R p75/80 and TNF-R p55/60 and IL-8 in the TCS of the THP-1 cell cultures are obtained with commercially available ELISAs from R&D Systems, by extrapolation from a standard curve generated with kit standards. The number of cells that either take up or exclude PI are measured by the FLOW cytometry machine and visualized by histograms using commercially available Cytologic software for each treatment group including all controls.
Biological variability in the magnitude of the response of THP-1 cell cultures requires that experiments be compared on the basis of percent change from "vehicle positive control" for each drug concentration. Percent change in each soluble protein evaluated from the "vehicle positive control" was calculated for each compound concentration with the following formula: % Change =(pg/ml (compound) - pg/ml (veh pos control))/(pg/ml (veh pos control) - pg/ml (veh neg control))x 100 [formula]
For the soluble protein (TNF-a, p75/80, p55/60, IL-8) studies under stimulated conditions, the mean pg/ml of duplicate wells were determined and the results expressed as percent change from "vehicle positive control". For the soluble protein (p75/80 and p55/60 receptors) studies under non-stimulated conditions, the mean pg/ml of duplicate wells were determined and the results expressed as percent change from […] utilizing the following formula: % Change =(pg/ml (compound neg control) - pg/ml (veh neg control))/(pg/ml (veh neg control))X 100 [formula]
IC50 values for each compound are calculated by non-linear regression analysis using customized software utilizing the JUMP statistical package.
(An ELISA detects its analyte on a solid surface through an enzyme-linked reagent.)

Assay [2] deals with MMP-13 (Homo sapiens, UniProt P45452). The experiment in a line: MMP-13 inhibition (thiopeptide or fluorescent peptide substrate). The assay is classed as biochemical. The note with it: for inhibition at 10 µM / MMP13: % @ 10µM per footnote a; for inhibition at 1 µM: % at 1 um (specified in cell). The source says: Alternatively, a fluorescent peptide substrate is used.
Assay [3] deals with T1, MMP-1 (Homo sapiens, UniProt P03956).
T1 sequence (P03956 100-469): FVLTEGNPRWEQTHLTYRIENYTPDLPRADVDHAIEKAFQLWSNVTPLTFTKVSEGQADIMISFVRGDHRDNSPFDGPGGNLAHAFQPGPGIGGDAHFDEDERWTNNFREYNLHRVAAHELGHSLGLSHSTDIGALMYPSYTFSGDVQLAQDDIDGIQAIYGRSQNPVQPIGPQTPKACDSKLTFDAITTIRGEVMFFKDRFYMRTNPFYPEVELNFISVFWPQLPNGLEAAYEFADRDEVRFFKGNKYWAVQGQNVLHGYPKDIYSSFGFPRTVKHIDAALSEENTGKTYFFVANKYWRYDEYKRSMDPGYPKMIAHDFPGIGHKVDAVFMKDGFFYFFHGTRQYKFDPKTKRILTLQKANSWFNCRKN
Nature of the assay: MMP-1 inhibition (thiopeptide or fluorescent peptide substrate). Conditions: for inhibition at 10 µM: read-out: MMP1.
Experimental: (§1) The enzyme activity is measured by the rate of the color increase. The thiopeptide substrate is made up fresh as a 20 mM stock in 100% DMSO and the DTNB is dissolved in 100% DMSO as a 100 mM stock and stored in the dark at room temperature. Both the substrate and DTNB are diluted together to 1 mM with substrate buffer (50 mM HEPES pH 7.5, 5 mM CaCl2) before use. The stock of enzyme is diluted with buffer (50 mM HEPES, pH 7.5, 5 mM CaCl2, 0.02% Brij) to the desired final concentration.
(§2) Alternatively, a fluorescent peptide substrate is used. In this test procedure, the peptide substrate contains a fluorescent group and a quenching group. Upon cleavage of the substrate by an MMP, the fluorescence that is generated is quantitated on the fluorescence plate reader. The assay is run in HCBC assay buffer (50mM HEPES, pH 7.0, 5 mM Ca^+2, 0.02% Brij, 0.5% Cysteine), with human recombinant MMP-1, MMP-9, or MMP-13. The substrate is dissolved in methanol and stored frozen in 1 mM aliquots. For the assay, substrate and enzymes are diluted in HCBC buffer to the desired concentrations. Compounds are added to the 96 well plate containing enzyme and the reaction is started by the addition of substrate.
(§3) For either the thiopeptide or fluorescent peptide test procedures, the slope of the line is calculated and represents the reaction rate. […] The mean (x±sem) of the control rate is calculated and compared for statistical significance (p<0.05) with drug-treated rates using Dunnett's multiple comparison test.

Assay [4] has as its target MMP-9 (Homo sapiens, UniProt P14780). The experiment in a line: MMP-9 inhibition (thiopeptide or fluorescent peptide substrate). Conditions: for inhibition at 10 µM: read-out: MMP9.
Experimental: as §1, §2, §3
Assay [5] addresses TNF-α converting enzyme (TACE) (Homo sapiens, UniProt P78536). Nature of the assay: Test procedure for measuring TACE inhibition (fluorescent peptidyl substrate). Type of assay: biochemical. The note with it: for IC50: second table.

MMP-9, sequence (P14780 94-707): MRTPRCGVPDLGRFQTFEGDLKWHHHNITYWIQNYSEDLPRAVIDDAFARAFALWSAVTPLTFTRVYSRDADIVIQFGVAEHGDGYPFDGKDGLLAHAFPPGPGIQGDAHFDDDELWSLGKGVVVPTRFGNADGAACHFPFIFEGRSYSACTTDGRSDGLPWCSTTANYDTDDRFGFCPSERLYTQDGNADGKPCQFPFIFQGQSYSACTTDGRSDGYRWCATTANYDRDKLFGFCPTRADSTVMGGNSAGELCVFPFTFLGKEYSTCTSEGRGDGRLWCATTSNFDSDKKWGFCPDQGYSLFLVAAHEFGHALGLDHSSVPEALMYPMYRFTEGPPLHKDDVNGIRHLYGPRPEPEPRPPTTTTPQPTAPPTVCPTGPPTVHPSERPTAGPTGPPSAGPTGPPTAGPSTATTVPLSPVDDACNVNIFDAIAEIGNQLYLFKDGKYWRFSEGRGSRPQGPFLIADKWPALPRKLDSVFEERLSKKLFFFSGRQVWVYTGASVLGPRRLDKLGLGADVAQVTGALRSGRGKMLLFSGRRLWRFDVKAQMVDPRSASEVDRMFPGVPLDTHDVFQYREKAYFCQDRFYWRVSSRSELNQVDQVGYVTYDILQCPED
TNF-α converting enzyme (TACE), sequence (P78536 215-824): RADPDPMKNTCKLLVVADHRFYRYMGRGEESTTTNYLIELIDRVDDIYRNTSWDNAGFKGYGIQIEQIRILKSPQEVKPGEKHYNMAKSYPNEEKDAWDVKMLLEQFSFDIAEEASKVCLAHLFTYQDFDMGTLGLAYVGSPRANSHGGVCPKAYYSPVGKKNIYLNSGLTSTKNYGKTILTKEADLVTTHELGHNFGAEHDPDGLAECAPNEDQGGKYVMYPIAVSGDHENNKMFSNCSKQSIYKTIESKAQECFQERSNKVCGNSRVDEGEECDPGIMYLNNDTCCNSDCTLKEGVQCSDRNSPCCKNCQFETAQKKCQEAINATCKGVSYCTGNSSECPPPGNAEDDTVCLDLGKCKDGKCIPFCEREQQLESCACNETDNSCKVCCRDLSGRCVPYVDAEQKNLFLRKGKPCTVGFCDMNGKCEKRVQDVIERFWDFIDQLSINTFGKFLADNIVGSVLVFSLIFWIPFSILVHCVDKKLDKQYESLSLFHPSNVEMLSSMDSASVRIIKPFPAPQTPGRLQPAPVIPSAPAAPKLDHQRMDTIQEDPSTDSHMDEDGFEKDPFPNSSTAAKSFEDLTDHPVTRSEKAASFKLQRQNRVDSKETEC

For `CC#CCOc1ccc([S+]([O-])[C@H](C(=O)NO)c2ccc(OC)cc2)cc1` (single isomer, unassigned) [Example 78], the inhibition at 3 µM in assay [1] was 13%. The inhibition at 10 µM in assay [2] (read-out: MMP13) stood at 54.5%; in assay [3], 5.9%; in assay [4], 32.7%.
Regarding `CC#CCOc1ccc(SC(C(=O)NO)c2ccc(OC)cc2)cc1` (stereo not shown) [Example 76, 2-{[4-(2-butynyloxy)phenyl]sulfanyl}-N-hydroxy-2-(4-methoxyphenyl) acetamide], in assay [1], the inhibition at 3 µM came out at 15%. Also, the inhibition at 10 µM in assay [2] (read-out: MMP13) was found to be 26.8%; in assay [3], 3%; in assay [4], 21.6%.
`CC#CCOc1ccc(S(=O)(=O)C(CCc2ccc(OCCN3CCCCC3)cc2)C(=O)NO)cc1` (stereo not shown) [Example 71]: the inhibition at 3 µM in assay [1] turned out to be 11%. Further, the IC50 in assay [2] (IC50, read-out: MMP13) was found to be 894 nM; in assay [3], 10000 nM; in assay [4] it was 2510 nM.
Take `CC#CCOc1ccc(S(=O)(=O)C(C(=O)NO)c2ccc(OCC)cc2)cc1` (stereo not shown) [Example 102]: the IC50 in assay [5] (IC50 (nM) per footnote a) was determined as 82 nM. Besides, the inhibition at 3 µM in assay [1] was found to be 10%. In addition, the inhibition at 10 µM stood at 71% in assay [2] (read-out: MMP13) and 26% in assay [3].
For the compound `CC#CCOc1ccc(SC(C(=O)NO)c2ccc(F)cc2)cc1` (stereo not shown) [Example 95], the inhibition at 3 µM in assay [1] is -7%. The inhibition at 10 µM in assay [2] (read-out: MMP13) came to 26%; in assay [3], 9%; in assay [4], 5.7%.
In assay [5] (IC50 (nM) per footnote a), `CC#CCOc1ccc(S(=O)(=O)C(C(=O)NO)c2ccc(OC)cc2)cc1` (stereo not shown) [Example 79, 2-{[4-(2-butynyloxy)phenyl]sulfonyl}-N-hydroxy-2-(4-methoxyphenyl) acetamide] registered an IC50 of 48.1 nM. Besides, the inhibition at 10 µM came to 56.8% in assay [2] (read-out: MMP13), 23.3% in assay [3] and 27.3% in assay [4].
`CC#CCOc1ccc([S+]([O-])C(C(=O)NO)c2ccc(F)cc2)cc1` (stereo not shown) [Example 96]: in assay [2], the MMP13 was determined as 53.40%. This compound also registered an MMP1 in assay [3] (% @ 10µM per footnote a) of 18.40%. Moreover, in assay [4] (% @ 10µM per footnote a), the MMP9 was 0%.
Consider `CC#CCOc1ccc(SC(C(=O)NO)c2ccccc2OC)cc1` (stereo not shown) [Example 98, 2-(2-methoxyphenyl)-2-{[4-(2-butynyloxy)phenyl]sulfanyl}-N-hydroxyacetamide], for which the IC50 in assay [5] (IC50 (nM) per footnote a) was 464 nM. In assay [1], the inhibition at 3 µM was determined as 1%. For the same compound, the inhibition at 10 µM in assay [2] (read-out: MMP13) was determined as 59%; in assay [3], 23%.
In the same order, the values of `CC#CCOc1ccc(S(=O)(=O)C(C(=O)NO)C2CCN(C(=O)OC(C)(C)C)CC2)cc1` (stereo not shown) [Example 117, Tert-butyl-4-[1-{[4-(2-butynyloxy)phenyl]sulfonyl}-2-(hydroxyamino)-2-oxoethyl]-1-piperidine carboxylate] are 190 nM, 50%, 52% and 22%.
On to `CC#CCOc1ccc([S+]([O-])[C@@H](C(=O)NO)c2cccc(Br)c2)cc1` (single isomer, unassigned) [Example 104], for which, in assay [5] (IC50 (nM) per footnote a), the IC50 was 63 nM. Moreover, the inhibition at 3 µM in assay [1] turned out to be 4%. Also, the inhibition at 10 µM in assay [2] (read-out: MMP13) came out at 54%; in assay [3] it was 6%.
Regarding `CC#CCOc1ccc(SC(C(=O)NO)c2ccc3ccccc3c2)cc1` (stereo not shown) [Example 114, 2-{[4-(2-Butynyloxy)phenyl]sulfanyl}-2-(2-naphthyl)-N-hydroxyacetamide], the inhibition at 10 µM in assay [5] (% @ 10µM per footnote a, read-out: TACE IC50) came to 40.9%; in assay [2] (read-out: MMP13) it was 30.5%; in assay [3], 3.5%. In addition, the inhibition at 3 µM in assay [1] is 12%.
Regarding `CC#CCOc1ccc([S+]([O-])C(C(=O)NO)C(C)C)cc1` (stereo not shown) [Example 108, R-2-{[4-(2-butynylaxy)phenyl]sulfinyl}-2-isopropyl-N-hydroxyacetamide], the IC50 in assay [3] amounted to 6480 nM; in assay [4], 399 nM.
`CC#CCOc1ccc([S+]([O-])C(C(=O)NO)c2ccccc2)cc1` (single isomer, unassigned) [Example 113, S-2-{[4-(2-butynyloxy)phenyl]sulfinyl}-2-phenyl-N-hydroxyacetamide] returned an MMP13 in assay [2] of 59%. This compound also yielded an MMP1 in assay [3] of 6.20%. This compound returned an MMP9 in assay [4] of 25.70%.
On to `CC#CCOc1ccc(SC(C(=O)NO)c2ccc(Br)cc2)cc1` (stereo not shown) [Example 85, 2-(4-bromophenyl)-2-{[4-(2-butynyloxy)phenyl]sulfanyl}-N-hydroxyacetamide], for which the IC50 in assay [5] (IC50 (nM) per footnote a) was found to be 391 nM. Besides, the inhibition at 3 µM in assay [1] is -10%. The inhibition at 10 µM in assay [2] (read-out: MMP13) was found to be 30.5%; in assay [3], 6.8%.
In assay [5] (IC50 (nM) per footnote a), `CC#CCOc1ccc([S+]([O-])C(C(=O)NO)c2ccc3ccccc3c2)cc1` (stereo not shown) [Example 115, 2-{[4-(2-butynyloxy)phenyl]sulfinyl}-2-(2-naphthyl)-N-hydroxyacetamide] showed an IC50 of 141 nM. Moreover, the inhibition at 3 µM in assay [1] is 11%. Also, the inhibition at 1 µM in assay [2] (read-out: MMP13) was found to be 45.1%. The inhibition at 10 µM in assay [3] stood at 4.11%.
In turn, `CC#CCOc1ccc(S(=O)(=O)C(C(=O)NO)c2ccc3ccccc3c2)cc1` (stereo not shown) [Example 116, 2-{[4-(2-butynyloxy)phenyl]sulfonyl}-2-(2-naphthyl)-N-hydroxyacetamide] gave an IC50 in assay [5] (IC50 (nM) per footnote a) of 495 nM. The inhibition at 3 µM in assay [1] is 7%. The inhibition at 1 µM in assay [2] (read-out: MMP13) was found to be 33.6%. Besides, the inhibition at 10 µM in assay [3] was found to be 5.6%.
`CC#CCOc1ccc([S+]([O-])C(C(=O)NO)c2ccccc2OC)cc1` (stereo not shown) [Example 99, 2-(2-methoxyphenyl)-2-{[4-(2-butynyloxy)phenyl]sulfinyl}-N-hydroxyacetamide] had an IC50 in assay [5] of 1100 nM. In assay [1], the inhibition at 3 µM came to 1%. The inhibition at 10 µM was 33.6% in assay [2] (read-out: MMP13) and 0% in assay [3].
In turn, `CC#CCOc1ccc([S+]([O-])C(C(=O)NO)c2ccc(Cl)cc2)cc1` (mixture of isomers) [Example 81, 2-{[4-(2-butynyloxy)phenyl]sulfinyl}-2-(4-chlorophenyl) N-hydroxyacetamide] returned an IC50 in assay [5] (IC50 (nM) per footnote a) of 223 nM. Also, in assay [1], the inhibition at 3 µM turned out to be 6%. For the same compound, the inhibition at 1 µM in assay [2] (read-out: MMP13) was determined as 21.6%. The inhibition at 10 µM in assay [3] was 30.5%.
Compound `CC#CCOc1ccc([S+]([O-])[C@@H](C(=O)NO)c2ccc(OC)cc2)cc1` (single isomer, unassigned) [Example 77] displayed an MMP1 in assay [3] (% @ 10µM per footnote a) of 17.50%. The compound also showed an MMP9 in assay [4] of 45.40%.
